Columns and labels:
A-431 [1] = experiment: Cell cycle arrest in A431 cells by accumulation at G2/M phase cell; assay type: functional, cell-based; details: Homo sapiens
A-431 [2] = experiment: Cell cycle arrest in A431 cells by accumulation at G2/M phase cell at 0.1uM; assay type: functional; details: Homo sapiens
Tubulin (Bos taurus) [3] = biological target: T1, Tubulin (Bos taurus) (UniProt Q6B856+Q862L2+Q862F3); experiment: Inhibition of tubulin polymerization in bovine brain at 3.33 uM
Tubulin (Bos taurus) [4] = biological target: T1, Tubulin (Bos taurus); details: at 10 µM
Description: Inhibition of tubulin polymerization in bovine brain at 10 uM

Tubulin = experiment: Displacement of [3H]colchicine from tubulin; assay type: protein-complex assay, Homo sapiens
HCT-116 = experiment: Antiproliferative activity against HCT116 tumor cells by sulforhodamine B assay; assay type: functional; details: Homo sapiens
LoVo = experiment: Antiproliferative activity against LoVo tumor cells by sulforhodamine B assay; assay type: functional; details: Homo sapiens
A498 = experiment: Antiproliferative activity against A498 tumor cells by sulforhodamine B assay; assay type: functional; details: Homo sapiens
DLD-1 = experiment: Antiproliferative activity against DLD1 tumor cells by sulforhodamine B assay; assay type: functional; details: Homo sapiens
NCI-H460 = experiment: Antiproliferative activity against NCI-H460 tumor cells by sulforhodamine B assay; assay type: functional; details: Homo sapiens
SNB-19 = experiment: Antiproliferative activity against SNB19 tumor cells by sulforhodamine B assay; assay type: functional; details: Homo sapiens
NCI/ADR-RES = experiment: Antiproliferative activity against NCI/ADR-RES tumor cells by sulforhodamine B assay; assay type: functional; details: Homo sapiens
DU-145 = experiment: Antiproliferative activity against DU145 tumor cells by sulforhodamine B assay; assay type: functional; details: Homo sapiens
A-431 [5] = experiment: Antiproliferative activity against A431 tumor cells by sulforhodamine B assay; assay type: functional; details: Homo sapiens
SK-OV-3 = experiment: Antiproliferative activity against SKOV3 tumor cells by sulforhodamine B assay; assay type: functional; details: Homo sapiens

SMILES | EC50 (A-431 [1]) [nM] | inhibition (Tubulin (Bos taurus) [3]) [%] | inhibition (Tubulin (Bos taurus) [4]) [%] | inhibition at 0.1 µM (A-431 [2]) [%] | also measured
COc1ccc(CNc2n[nH]c(-c3cccnc3Oc3cc(OC)cc(OC)c3)n2)cc1 | – | – | 86 | 28 | –
Fc1ccc(CNc2ncccc2-c2n[nH]c(Nc3ccc4c(c3)OCO4)n2)cc1F | – | – | 84 | 23 | –
COc1ccc(Nc2n[nH]c(-c3cccnc3Nc3cc(OC)cc(OC)c3)n2)cc1 | 83 | – | 73 | 68 | –
COc1cccc(Nc2n[nH]c(-c3cccnc3Nc3cc(F)cc(F)c3)n2)c1 | – | – | 0 | – | –
COc1cc(Nc2ncccc2-c2nnc(Nc3ccc4c(c3)OCCO4)[nH]2)cc(OC)c1 | – | – | – | – | Ki (Tubulin): 160 nM
COc1cc(OC)cc(Oc2ncccc2-c2n[nH]c(Nc3ccc4c(c3)OCCO4)n2)c1 | 3.6 | 88 | 100 | 89 | Ki (Tubulin): 20 nM
c1ccc(Oc2ncccc2-c2nc(Nc3ccc4c(c3)OCO4)n[nH]2)nc1 | – | 43 | – | 21 | –
COc1cc2c(c(OC)c1OC)-c1ccc(OC)c(=O)cc1[C@@H](NC(C)=O)CC2 [COLCHICINE] | 2.8 | – | – | 80 | –
COc1cc(OC)cc(Oc2ncccc2-c2n[nH]c(N(C)c3ccncc3)n2)c1 | – | – | 68 | 44 | –
COc1cc(OC)cc(Oc2ccccc2-c2n[nH]c(Nc3ccc4c(c3)OCCO4)n2)c1 | 6.6 | 65 | – | 82 | –
COc1cccc(Nc2n[nH]c(-c3cccnc3Oc3cc(OC)cc(OC)c3)n2)c1 | 21 | 100 | 100 | 83 | Ki (Tubulin): 50 nM
COc1cccc(Nc2n[nH]c(-c3cccnc3Nc3ccccc3)n2)c1 | – | – | 4 | – | –
COc1cc(Nc2ncccc2-c2nc(-c3cccc(OC)c3)n[nH]2)cc(OC)c1 | – | – | 15 | – | –
COc1cc(Nc2ncccc2-c2n[nH]c(Nc3ccc4c(c3)OCCO4)n2)cc(OC)c1 | 117 | – | 95 | 83 | –
COc1cc(Nc2n[nH]c(-c3cccnc3Oc3cc(OC)cc(OC)c3)n2)cc(OC)c1 | 23 | 73 | 99 | 87 | –
COc1cccc(CN(C)c2n[nH]c(-c3cccnc3Oc3cc(OC)cc(OC)c3)n2)c1 | – | 28 | – | – | –
COc1cc(OC)cc(Oc2ccncc2-c2n[nH]c(Nc3ccc4c(c3)OCCO4)n2)c1 | 13 | 96 | – | 86 | –
COc1cccc(Nc2nnc(-c3cccnc3Nc3cc(OC)cc(OC)c3)[nH]2)c1 | – | – | – | – | Ki (Tubulin): 100 nM
Fc1ccc(CNc2ncccc2-c2n[nH]c(Nc3ccc4c(c3)OCCO4)n2)cc1F | – | – | 84 | 32 | –
COc1cc(Nc2ncccc2-c2n[nH]c(Nc3ccc(C#N)cc3)n2)cc(OC)c1 | – | – | 34 | – | –
Fc1cc(F)cc(Oc2ncccc2-c2n[nH]c(Nc3ccc4c(c3)OCO4)n2)c1 | – | 97 | – | 23 | –
O=C1CCCN1CCCNc1ncccc1-c1n[nH]c(Nc2ccc3c(c2)OCCO3)n1 | – | – | 21 | – | –
COc1ccc(CNc2ncccc2-c2n[nH]c(Nc3ccc4c(c3)OCCO4)n2)cc1 | – | – | 68 | 30 | –

SMILES | EC50 (A-431 [1]) [nM] | inhibition (Tubulin (Bos taurus) [3]) [%] | inhibition (Tubulin (Bos taurus) [4]) [%] | inhibition at 0.1 µM (A-431 [2]) [%] | also measured
COc1cc(Nc2nccnc2-c2n[nH]c(Nc3ccc4c(c3)OCO4)n2)cc(OC)c1 | 17 | – | 89 | 85 | –
COc1cc(Nc2ncccc2-c2nnc(Nc3ccc4c(c3)OCCO4)n2C)cc(OC)c1 | 240 | 64 | – | 25 | –
COc1cc(Nc2ncccc2-c2n[nH]c(Nc3ccccc3)n2)cc(OC)c1 | > 10000 | – | 5 | 22 | –
Fc1cccc(Oc2ncccc2-c2n[nH]c(Nc3ccc4c(c3)OCO4)n2)c1 | – | 43 | – | 37 | –
COc1cc(Nc2ccncc2-c2n[nH]c(Nc3ccc4c(c3)OCCO4)n2)cc(OC)c1 | 5.3 | – | 100 | 77 | –
COc1cc(OC)cc(Oc2ncccc2-c2n[nH]c(Nc3cccnc3)n2)c1 | 66 | 49 | – | 61 | –
COc1cc(Nc2ncncc2-c2n[nH]c(Nc3ccc4c(c3)OCCO4)n2)cc(OC)c1 | 53 | – | 100 | 68 | –
Fc1cc(F)cc(Nc2ncccc2-c2n[nH]c(Nc3ccc4c(c3)OCO4)n2)c1 | – | – | 28 | – | –
COc1ccc(C(=O)Nc2n[nH]c(-c3cccnc3Oc3cc(OC)cc(OC)c3)n2)cc1 | – | 8 | – | – | –
COc1cccc(Nc2n[nH]c(-c3cccnc3Nc3cc(OC)cc(OC)c3)n2)c1 | 90 | – | 80 | 72 | GI50 (HCT-116): 400 nM; GI50 (LoVo): 20 nM; GI50 (A498): 60 nM; GI50 (DLD-1): 70 nM; GI50 (NCI-H460): 10 nM; GI50 (SNB-19): 150 nM; GI50 (NCI/ADR-RES): 150 nM; GI50 (DU-145): 20 nM; GI50 (A-431 [5]): 50 nM; GI50 (SK-OV-3): 220 nM
COc1cccc(Cc2n[nH]c(-c3cccnc3Nc3cc(OC)cc(OC)c3)n2)c1 | – | – | 9 | – | –
COc1cc(Nc2ncccc2-c2n[nH]c(Nc3ccc(N(C)C)cc3)n2)cc(OC)c1 | – | – | 35 | – | –
COc1cc(Nc2ncccc2-c2n[nH]c(Nc3ccc4c(c3)OCO4)n2)cc(OC)c1 | 62 | – | 87 | 85 | Ki (Tubulin): 60 nM
COc1cc(OC)cc(Oc2ncccc2-c2n[nH]c(Nc3ccc(C#N)cc3)n2)c1 | – | 57 | 97 | 27 | –
COc1cc(OC)cc(Oc2ncccc2-c2n[nH]c(Nc3ccc4c(c3)OCO4)n2)c1 | 7.2 | 91 | 98 | 83 | Ki (Tubulin): 10 nM
COc1cc(OC)cc(Oc2ncccc2-c2n[nH]c(Nc3cccc(O)c3)n2)c1 | 10 | 83 | 100 | 86 | –
COc1cc(Nc2ncccc2-c2nc(Nc3ccc4c(c3)OCCO4)n(C)n2)cc(OC)c1 | 130 | – | 76 | 26 | –
CN(C)c1cccc(Oc2ncccc2-c2n[nH]c(Nc3ccc4c(c3)OCO4)n2)c1 | 11 | 53 | – | 63 | –
COc1cc(Nc2ncccc2-c2nc(Nc3ccc(OC)cc3OC)n[nH]2)cc(OC)c1 | – | – | 47 | 17 | –
Cc1cc(C)cc(Oc2ncccc2-c2n[nH]c(Nc3ccc4c(c3)OCO4)n2)c1 | 10 | 52 | – | 83 | –
COc1ccc(/C=C\c2cc(OC)c(OC)c(OC)c2)cc1O [COMBRETASTATIN A4] | – | – | – | 88 | –
COc1cc(Oc2ncccc2-c2n[nH]c(Nc3ccc4c(c3)OCO4)n2)cc(OC)c1OC | 16 | 89 | – | 86 | –

More lines, main results first:

EC50 (A-431 [1]) [nM] | inhibition (Tubulin (Bos taurus) [3]) [%] | inhibition (Tubulin (Bos taurus) [4]) [%] | SMILES | inhibition at 0.1 µM (A-431 [2]) [%] | also measured
12 | 80 | – | COc1cc(O)cc(Oc2ncccc2-c2n[nH]c(Nc3ccc4c(c3)OCO4)n2)c1 | 83 | –
– | – | 45 | COc1cc(Nc2n[nH]c(-c3cccnc3Nc3cc(OC)cc(OC)c3)n2)cc(OC)c1 | – | –
66 | – | 84 | c1cnc(NCc2ccncc2)c(-c2n[nH]c(Nc3ccc4c(c3)OCO4)n2)c1 | 70 | –
– | 5 | – | COc1cc(OC)cc(Oc2ncccc2-c2nc(N(C)c3cccc(OC)c3)n[nH]2)c1 | – | –
– | – | 9 | COc1cccc(Nc2n[nH]c(-c3cccnc3Nc3cccc(OC)c3)n2)c1 | – | –
210 | 59 | – | COc1cc(OC)cc(Oc2cnccc2-c2n[nH]c(Nc3ccc4c(c3)OCCO4)n2)c1 | 40 | –
– | 90 | – | COc1cc(OC)cc(Oc2ncccc2-c2n[nH]c(NCc3ccc4c(c3)OCO4)n2)c1 | 24 | –
– | 51 | 87 | COc1cc(OC)cc(Oc2ncccc2-c2n[nH]c(Nc3cc(F)cc(F)c3)n2)c1 | 27 | –
– | – | 88 | COc1ccc(CNc2n[nH]c(-c3cccnc3Nc3cc(OC)cc(OC)c3)n2)cc1 | 22 | –
9.4 | – | 100 | COc1cc(Nc2ccncc2-c2n[nH]c(Nc3ccc4c(c3)OCO4)n2)cc(OC)c1 | 84 | –
– | – | 23 | c1cncc(CCNc2ncccc2-c2n[nH]c(Nc3ccc4c(c3)OCCO4)n2)c1 | – | –
> 10000 | – | 33 | COc1cc(Nc2ncccc2-c2nc(Nc3cc(OC)ccc3OC)n[nH]2)cc(OC)c1 | 20 | –
44 | 69 | – | COc1cc(OC)cc(Oc2ncncc2-c2n[nH]c(Nc3ccc4c(c3)OCCO4)n2)c1 | 83 | –
– | – | 100 | COc1cccc(CNc2n[nH]c(-c3cccnc3Oc3cc(OC)cc(OC)c3)n2)c1 | 32 | –
– | – | 44 | COc1cc(Nc2ncccc2-c2n[nH]c(Nc3cc(Cl)cc(Cl)c3)n2)cc(OC)c1 | – | –
43.5 | – | – | COc1cc2c(c(OC)c1OC)-c1ccc(O)cc1[C@@H](N)CC2 [COLCHINOL] | – | Ki (Tubulin): 1850 nM
– | 30 | – | COc1cc(OC)cc(Oc2ncccc2-c2nnc(Nc3ccc4c(c3)OCCO4)n2C)c1 | – | –
120 | – | 100 | COc1cccc(CNc2n[nH]c(-c3cccnc3Nc3cc(OC)cc(OC)c3)n2)c1 | 71 | –
31 | 76 | 98 | COc1cc(OC)cc(Oc2ncccc2-c2n[nH]c(Nc3ccc(N(C)C)cc3)n2)c1 | 86 | –
